Reference: US20260274794A1, “COMPOUNDS, COMPOSITIONS, AND METHOD OF INHIBITING TAU PROTEIN AND ALPHASYNUCLEIN AGGREGATION” (Purdue Research Foundation, priority 2023, published 2026)

How the values were obtained:
α-synuclein (α-syn) = biological target: T1, α-synuclein (α-syn) (Homo sapiens, UniProt P37840); test: Thioflavin T (ThT) fluorescence assay of α-syn fibril formation; type: biochemical; settings: compound 100 μM; ThT fluorescence intensity at plateau phase, control = 100%
T1 construct: purchased rPeptide, LLC (Watkinsville, GA)
Method: (§1) ThT fluorescence is routinely established assay to follow the kinetics of α-syn fibril formation with different drug candidate treatments. Compounds were first tested at a final of concentration of 100 μM and α-syn and 2N4R tau were prepared at 2 μM and 6 μM, respectively. Compounds with highest anti-fibrillary activity were tested at 3.125, 6.25, 12.5, 25, 50, and 100 μM to obtain dose-response curves.
For the α-syn ThT assay, ThT was used at a final concentration of 20 μM. α-Syn was dissolved in 20 mM Tris-HCl (pH 7.4) supplemented with 100 mM NaCl to a stock solution of 280 μM (1 mg/250 μL) prior to resuspension in ThT buffer to obtain a final concentration of 2 μM. Compounds and ThT were first added to the wells. The kinetics of fibril formation begin when the α-syn was solubilized in the ThT buffer (10 mM PBS buffer (pH 7.4), supplemented with 0.5 mM SDS and 300 mM NaCl) and added to a non-treated black 96 well microplate with a transparent flat bottom. Each well was filled with a maximum volume of 150 μL buffer with one 3 mm borosilicate bead. The background fluorescence signal consisted of ThT in buffer and 0.25% DMSO without α-syn. The excitation and emission wavelengths were set at 440 and 485 nm, respectively, with a Synergy HT multi-mode microplate reader (BioTek, Winooski, VT). Measurements were taken at 37° C. every 20 minutes over 50 hours of shaking prior to reading the plate. Samples were measured in three replicates and the experiments were repeated three times using different α-syn stock solutions. For each time point, the background fluorescence signal was subtracted. Arbitrary units of fluorescence were calculated from the mean values normalized against the maximum value in each completed assay. Arbitrarily, the maximum value (100%) for the fluorescence intensity was established for α-syn.
Compounds were tested at 100 μM with α-syn at 6 μM, resulting in a molar ratio of approximately 1:16 (protein:compound). The plateau phase of sigmoidal kinetics is of particular interest because it is the phase in which mature fibrils form and where aggregation and disaggregation are at equilibrium with each other; therefore, the fluorescence intensity between multiple compounds at the plateau phase can be compared to identify the compounds with the most promising anti-aggregation activity (Table 1, column α-syn ThT %). […] Compound 17 was the best representative of the 5-aminoindole series and moved to the tier-2 assays, even though the resulting ThT percentage of fluorescence intensity was 10% higher than the cut off. These compounds were then tested on tau 2N4R ThT fluorescence assays.

tau isoform 2N4R = biological target: T2, tau isoform 2N4R (Homo sapiens, UniProt P10636); test: ThT fluorescence assay of tau isoform 2N4R fibril formation; type: biochemical; settings: for effect on tau isoform 2N4R fibril formation (ThT): compound 100 μM, tau 2N4R 6 μM; for tau isoform 2N4R fibrillization, ThT dose-response: compound 3.125-100 μM, tau 6 μM, plateau phase
T2 construct: made in house; host or cells: E. coli BL21 (DE3), vector pRK172
Method: as §1
Concerning the non-phosphorylated tau (isoform 2N4R) kinetics of fibril formation, ThT was performed with the tau protein solution was diluted to a final concentration of 6 μM in PBS (pH 7.4) supplemented with 1.5 μM heparin, 20 μM ThT, 2.5 mM DTT, and 100 μM compound. Aliquots of the diluted protein solution (100 μL each) were pipetted into the wells of a 96-well plate, and a Teflon ball was added to each well. The plate was incubated at 37° C. with constant shaking at 1,000 rpm in a Tecan Stark plate reader. ThT fluorescence was measured every 15 min with excitation and emission wavelengths of 440 nm and 480 nm, and the data were plotted using GraphPad Prism.
Various structural analogs were first tested at a final concentration of 100 μM in the presence of tau 2N4R at 6 μM. Compounds 2, 4-8, and 17 were pre-selected with α-syn ThT assay prior to evaluation on the tau isoform 2N4R.

α-syn = α-syn (Homo sapiens, UniProt P37840); test: Western blot (anti-oligo A11, anti-α-syn) of uncross-linked α-syn; type: biochemical; settings: compound 600 μM, α-syn 60 μM, 37° C., 24 hours
Method: To validate the PICUP results, the uncross linked α-syn (produced in Dr. Rochet lab) was incubated at a final concentration of 60 μM in 10 mM phosphate buffer (pH 7.4) with the presence of vehicle (1.5% DMSO), the amide compounds of interest (Compounds 2, 8, 17), and the weak anti-fibrillization inhibitor (compound 13). Compounds were tested at a final concentration of 600 μM (molar ratio 1:10). Samples were incubated for 24 h and 48 h with constant shaking 300 rpm at 37° C. (VWR Thermal Shake Touch, Troemner, LLC, Thorofare, NJ). After completion of the incubation time, samples were mixed with one third volume of above-mentioned loading buffer and separated by electrophoresis in a 16% SDS-Page gel. […] Nitrocellulose membranes were exposed to the monoclonal antibodies diluted at 1/1000 using a 5% non-fat dried milk with TBS and 0.1% Tween-20 (TBS-T) for 12 h at 4° C. Peroxidase conjugated secondary antibodies consisted of an anti-rabbit (Rockland Immunochemicals, inc., Pottstown, PA, cat. #611-1322-0100) and an anti-mouse (Rockland, cat. #610-1319-0100) utilized at a dilution of 1/5000 in 5% non-fat dried milk with TBS-T for one hour at room temperature. The membranes were then exposed to a 1:1 ratio of enhanced chemiluminescent solution (Thermo Scientific, Rockford, IL, cat. #32209) for one minute before the acquisition of images using a SynGene G;Box scanner (model Chemi XR 5 and the G:Box Chemi-XRQ GENESYS software.
One limitation of the PICUP is the generation of free radicals which can be quenched by aromatic compounds resulting in false positives. For this reason, results obtained by PICUP were validated using the uncross-linked α-syn. High concentration of different compounds (600 μM; molar ratio of 1:10) were incubated at 37° C. for 24 hours with 60 μM of α-syn and separated by electrophoresis in 16% SDS-PAGE gels. Western blots using polyclonal anti-oligo A11 and monoclonal anti-α-syn were assessed to detect the high molecular weight oligomers and monomeric α-syn, respectively.

[1] = Kinetics of solubility in ThT buffer; type: physicochemical; settings: ThT buffer: 1×PBS pH 7.4, 300 mM NaCl, 0.5 mM SDS
Method: Kinetics of solubility analysis was performed at the MSU Medicinal Chemistry Core facility.

T2 sequence (P10636 1-441 isoform P10636-8): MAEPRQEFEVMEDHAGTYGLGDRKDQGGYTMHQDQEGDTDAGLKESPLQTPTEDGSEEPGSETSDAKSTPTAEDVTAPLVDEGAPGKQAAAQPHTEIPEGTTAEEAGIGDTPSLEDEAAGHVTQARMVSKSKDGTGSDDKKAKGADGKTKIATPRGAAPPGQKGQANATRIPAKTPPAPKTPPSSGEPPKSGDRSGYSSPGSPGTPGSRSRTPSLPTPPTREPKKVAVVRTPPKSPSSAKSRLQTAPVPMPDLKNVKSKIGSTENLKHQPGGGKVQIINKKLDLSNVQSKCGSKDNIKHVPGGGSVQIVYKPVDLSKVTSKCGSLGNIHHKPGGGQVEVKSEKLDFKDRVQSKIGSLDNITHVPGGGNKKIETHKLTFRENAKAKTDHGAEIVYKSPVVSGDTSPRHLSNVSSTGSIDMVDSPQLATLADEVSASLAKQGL

| Compound | remaining activity at 100 µM (α-synuclein (α-syn)) [%] | effect on tau isoform 2N4R fibril formation (ThT) (tau isoform 2N4R) | tau isoform 2N4R fibrillization, ThT dose-response (tau isoform 2N4R) | oligomeric species bands of uncross-linked α-syn (Western blot) (α-syn) | Measured Solubility [1] [µM] |
| --- | --- | --- | --- | --- | --- |
| O=C(Nc1cccc2[nH]ccc12)c1ccccc1 [Compound 2, N-(1H-indol-4-yl)benzamide] | ≤ 30 | weaker anti-fibrilization effect | reduction in protein fibrillization when subjected to higher concentrations | narrow, less intense bands compared to control | >300 |
| O=C(Nc1cccc2[nH]ccc12)c1ccc(F)cc1 [Compound 8, 4-fluoro-N-(1H-indol-4-yl)benzamide] | ≤ 30 | good inhibitory effect | reduction in protein fibrillization when subjected to higher concentrations | narrow, less intense bands compared to control | >300 |
| O=C(Nc1ccc2[nH]ccc2c1)c1ccccc1Cl [Compound 13, 2-chloro-N-(1H-indol-5-yl)benzamide] | 73.7 ± 5.6 | increased the fluorescence intensity | – | did not reduce the intensity of the bands | >300 |
